Test results reported in US20220135591A1, “HETEROCYCLIC COMPOUNDS AS INHIBITORS OF MONOACYLGLYCEROL LIPASE (MAGL)” (Hoffmann-La Roche Inc., priority 2019, published 2022).

Each compound was assayed against T1, MAGL (Homo sapiens, UniProt Q99685) (assay: 2-AG assay: MAGL inhibitory activity by hydrolysis of 2-arachidonoylglycerol to arachidonic acid, mass spectrometry). Details: 2-AG assay (values marked [b]).
T1 sequence (Q99685 1-303): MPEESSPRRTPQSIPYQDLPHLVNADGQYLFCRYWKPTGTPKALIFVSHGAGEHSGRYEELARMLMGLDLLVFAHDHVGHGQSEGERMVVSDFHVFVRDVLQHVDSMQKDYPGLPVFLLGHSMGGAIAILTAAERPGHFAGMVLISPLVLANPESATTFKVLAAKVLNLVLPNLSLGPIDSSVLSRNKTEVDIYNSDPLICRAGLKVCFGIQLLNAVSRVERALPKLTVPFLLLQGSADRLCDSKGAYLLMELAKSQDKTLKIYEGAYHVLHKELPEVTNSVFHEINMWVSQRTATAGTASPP
Format: biochemical
Outline: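 Human MAGL […] was preincubated 15 min at RT with compound ([…], 3-fold steps) in 50 mM Tris, 1 mM EDTA, 0.01% Tween. 2-AG (8 μM) was then added for 30 min at RT. Arachidonic acid was quantified by RapidFire SPE–triple quadrupole MS in negative ESI as its ratio to a d8-arachidonic acid standard.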

Compared with `C[C@H]1CN(C(=O)c2ccc(-c3cn(CC(C)(C)C)nn3)cc2)CCN1c1nc2nc(Cl)ccc2o1` [Example 274, [(3S)-4-(5-chlorooxazolo[4,5-b]pyridin-2-yl)-3-methyl-piperazin-1-yl]-[4-[1-(2,2-dimethylpropyl)triazol-4-yl]phenyl]methanone], `CC(C)(C)Cn1cc(-c2ccc(C(=O)N3CCN(c4nc5nc(Cl)ccc5o4)C(CO)C3)cc2)nn1` (centres unmarked) [Example 285, [4-(5-chlorooxazolo[4,5-b]pyridin-2-yl)-3-(hydroxymethyl)piperazin-1-yl]-[4-[1-(2,2-dimethylpropyl)triazol-4-yl]phenyl]methanone] is 15-fold higher in IC50: 137 nM for the first, 2050 nM for the second. The first is the more potent here.

Compared with `Cc1cc(C(=O)N2CCN(c3nc4nc(Cl)ccc4o3)CC2)ccc1-c1nnc(CC(C)C)o1` [Example 275, [4-(5-chlorooxazolo[4,5-b]pyridin-2-yl)piperazin-1-yl]-[4-(5-isobutyl-1,3,4-oxadiazol-2-yl)-3-methyl-phenyl]methanone], `CC(C)(F)Cc1nnc(-c2ccc(C(=O)N3CCN(c4nc5nc(Cl)ccc5o4)CC3)cc2F)o1` [Example 298, [4-(5-chlorooxazolo[4,5-b]pyridin-2-yl)piperazin-1-yl]-[3-fluoro-4-[5-(2-fluoro-2-methyl-propyl)-1,3,4-oxadiazol-2-yl]phenyl]methanone] is 3.7-fold higher in IC50: 26 nM for the first, 95 nM for the second.

Going from `O=C(c1ccc(OCC2(C(F)(F)F)CC2)nc1Cl)N1CCN(c2nc3nc(Cl)ccc3o2)CC1` [Example 276, [4-(5-chlorooxazolo[4,5-b]pyridin-2-yl)piperazin-1-yl]-[2-chloro-6-[[1-(trifluoromethyl)cyclopropyl]methoxy]-3-pyridyl]methanone] to `Cc1ccc2oc(N3CCN(C(=O)c4ccc(OCC5(C(F)(F)F)CC5)nc4Cl)CC3)nc2n1` [Example 296, [2-chloro-6-[[1-(trifluoromethyl)cyclopropyl]methoxy]-3-pyridyl]-[4-(5-methyloxazolo[4,5-b]pyridin-2-yl)piperazin-1-yl]methanone], the IC50 rises from 1520 nM to 2620 nM (1.7-fold). The first is the more potent here.

Going from `Cc1ccc2oc(N3CCN(C(=O)c4ccc(-c5nnn(CC(C)(C)C)n5)cc4)CC3)nc2n1` [Example 277, (4-(5-methyloxazolo[4,5-b]pyridin-2-yl)piperazin-1-yl)(4-(2-neopentyl-2H-tetrazol-5-yl)phenyl)methanone] to `CC(C)(C)Cn1nnc(-c2ccc(C(=O)N3CCN(c4nc5nc(Cl)ccc5o4)CC3)cc2)n1` [Example 283, (4-(5-chlorooxazolo[4,5-b]pyridin-2-yl)piperazin-1-yl)(4-(2-neopentyl-2H-tetrazol-5-yl)phenyl)methanone], the IC50 falls from 9 nM to 3 nM (3-fold).

First: CC(C)(C)c1nnc(-c2ncc(C(=O)N3CCN(c4nc5nc(Cl)ccc5o4)CC3)cc2F)o1 [Example 278, [6-(5-tert-butyl-1,3,4-oxadiazol-2-yl)-5-fluoro-3-pyridyl]-[4-(5-chlorooxazolo[4,5-b]pyridin-2-yl)piperazin-1-yl]methanone]
Second: CC(C)(C)c1nnc(-c2ccc(C(=O)N3CCN(c4nc5nc(Cl)ccc5o4)CC3)cc2F)o1 [Example 281, [4-(5-tert-butyl-1,3,4-oxadiazol-2-yl)-3-fluoro-phenyl]-[4-(5-chlorooxazolo[4,5-b]pyridin-2-yl)piperazin-1-yl]methanone]
The IC50 of the first is 22-fold higher: 801 nM for the first, 36 nM for the second. The second is the more potent here.

`CC(C)(C)Cn1cc(-c2ncc(C(=O)N3CCN(c4nc5nc(Cl)ccc5o4)CC3)cc2C(F)(F)F)cn1` [Example 279, [4-(5-chlorooxazolo[4,5-b]pyridin-2-yl)piperazin-1-yl]-[6-[1-(2,2-dimethylpropyl)pyrazol-4-yl]-5-(trifluoromethyl)-3-pyridyl]methanone] and `Cc1ccc2oc(N3CCN(C(=O)c4cnc(-c5cnn(CC(C)(C)C)c5)c(C(F)(F)F)c4)CC3)nc2n1` [Example 282, [6-[1-(2,2-dimethylpropyl)pyrazol-4-yl]-5-(trifluoromethyl)-3-pyridyl]-[4-(5-methyloxazolo[4,5-b]pyridin-2-yl)piperazin-1-yl]methanone] are the same in IC50: 11 nM for the first, 11 nM for the second.

First: CC(C)(CF)c1nnc(-c2ccc(C(=O)N3CCN(c4nc5nc(Cl)ccc5o4)CC3)cc2F)o1 [Example 280, [4-(5-chlorooxazolo[4,5-b]pyridin-2-yl)piperazin-1-yl]-[3-fluoro-4-[5-(2-fluoro-1,1-dimethyl-ethyl)-1,3,4-oxadiazol-2-yl]phenyl]methanone]
Second: CC(C)(C)Cn1nnc(-c2ccc(C(=O)N3CCN(c4nc5nc(Cl)ccc5o4)CC3)cc2F)n1 [Example 304, [4-(5-chlorooxazolo[4,5-b]pyridin-2-yl)piperazin-1-yl]-[4-[2-(2,2-dimethylpropyl)tetrazol-5-yl]-3-fluoro-phenyl]methanone]
The IC50 of the first is 30-fold higher: 119 nM for the first, 4 nM for the second.

Going from `CC(C)(C)c1nc(-c2ccc(C(=O)N3CC4CCC(C3)N4c3nc4nc(Cl)ccc4o3)cc2)no1` [Example 284, [4-(5-tert-butyl-1,2,4-oxadiazol-3-yl)phenyl]-[8-(5-chlorooxazolo[4,5-b]pyridin-2-yl)-3,8-diazabicyclo[3.2.1]octan-3-yl]methanone] to `CC(C)(C)c1nc(-c2ccc(C(=O)N3C4CCC3CN(c3nc5nc(Cl)ccc5o3)C4)cc2)no1` [Example 297, [4-(5-tert-butyl-1,2,4-oxadiazol-3-yl)phenyl]-[3-(5-chlorooxazolo[4,5-b]pyridin-2-yl)-3,8-diazabicyclo[3.2.1]octan-8-yl]methanone], the IC50 falls from 350 nM to 100 nM (3.5-fold).

Compared with `CC(C)(C)Cn1cc(-c2ccc(C(=O)N3CCN(c4nc5nc(F)ccc5o4)CC3)cc2)nn1` [Example 286, [4-[1-(2,2-dimethylpropyl)triazol-4-yl]phenyl]-[4-(5-fluorooxazolo[4,5-b]pyridin-2-yl)piperazin-1-yl]methanone], `CC1CN(c2nc3nc(Cl)ccc3o2)CCN1C(=O)c1ccc(-c2cn(CC(C)(C)C)nn2)cc1` (centres unmarked) [Example 295, [4-(5-chlorooxazolo[4,5-b]pyridin-2-yl)-2-methyl-piperazin-1-yl]-[4-[1-(2,2-dimethylpropyl)triazol-4-yl]phenyl]methanone] is 5.4-fold higher in IC50: 45 nM for the first, 243 nM for the second. The first is the more potent here.

Going from `Cc1cc(C(=O)N2CCN(c3nc4nc(Cl)ccc4o3)CC2)ccc1-n1cnc(C(C)(C)C)n1` [Example 287, [4-(3-tert-butyl-1,2,4-triazol-1-yl)-3-methyl-phenyl]-[4-(5-chlorooxazolo[4,5-b]pyridin-2-yl)piperazin-1-yl]methanone] to `Cc1ccc2oc(N3CCN(C(=O)c4ccc(-n5cnc(C(C)(C)C)n5)c(C)c4)CC3)nc2n1` [Example 288, [4-(3-tert-butyl-1,2,4-triazol-1-yl)-3-methyl-phenyl]-[4-(5-methyloxazolo[4,5-b]pyridin-2-yl)piperazin-1-yl]methanone], the IC50 rises from 114 nM to 175 nM (1.5-fold). The first is the more potent here.

Going from `Cc1ccc2oc(N3CCN(C(=O)c4ccc(-n5cnc(C(C)(C)C)n5)c(Cl)c4)CC3)nc2n1` [Example 291, [4-(3-tert-butyl-1,2,4-triazol-1-yl)-3-chloro-phenyl]-[4-(5-methyloxazolo[4,5-b]pyridin-2-yl)piperazin-1-yl]methanone] to `CC(C)(C)c1ncn(-c2ccc(C(=O)N3CCN(c4nc5nc(Cl)ccc5o4)CC3)cc2Cl)n1` [Example 292, [4-(3-tert-butyl-1,2,4-triazol-1-yl)-3-chloro-phenyl]-[4-(5-chlorooxazolo[4,5-b]pyridin-2-yl)piperazin-1-yl]methanone], the IC50 falls from 172 nM to 75 nM (2.3-fold).

Going from `CC(C)(C)Cn1cnc(-c2ccc(C(=O)N3CCN(c4nc5nc(Cl)ccc5o4)CC3)cc2F)n1` [Example 293, [4-(5-chlorooxazolo[4,5-b]pyridin-2-yl)piperazin-1-yl]-[4-[1-(2,2-dimethylpropyl)-1,2,4-triazol-3-yl]-3-fluoro-phenyl]methanone] to `Cc1ccc2oc(N3CCN(C(=O)c4ccc(-c5ncn(CC(C)(C)C)n5)c(F)c4)CC3)nc2n1` [Example 294, [4-[1-(2,2-dimethylpropyl)-1,2,4-triazol-3-yl]-3-fluoro-phenyl]-[4-(5-methyloxazolo[4,5-b]pyridin-2-yl)piperazin-1-yl]methanone], the IC50 rises from 20 nM to 34 nM (1.7-fold). The first is the more potent here.

First: Cc1ccc2oc(N3CCN(C(=O)c4cc(F)c(-c5nnn(CC(C)(C)C)n5)c(F)c4)CC3)nc2n1 [Example 299, [4-[2-(2,2-dimethylpropyl)tetrazol-5-yl]-3,5-difluoro-phenyl]-[4-(5-methyloxazolo[4,5-b]pyridin-2-yl)piperazin-1-yl]methanone]
Second: CC(C)(C)Cn1nnc(-c2c(F)cc(C(=O)N3CCN(c4nc5nc(Cl)ccc5o4)CC3)cc2F)n1 [Example 300, [4-(5-chlorooxazolo[4,5-b]pyridin-2-yl)piperazin-1-yl]-[4-[2-(2,2-dimethylpropyl)tetrazol-5-yl]-3,5-difluoro-phenyl]methanone]
The IC50 of the first is 3.1-fold higher: 31 nM for the first, 10 nM for the second.

Going from `Cc1ccc2oc(N3CCN(C(=O)c4ccc(-c5nnn(CC(C)(C)C)n5)c(C)c4)CC3)nc2n1` [Example 301, [4-[2-(2,2-dimethylpropyl)tetrazol-5-yl]-3-methyl-phenyl]-[4-(5-methyloxazolo[4,5-b]pyridin-2-yl)piperazin-1-yl]methanone] to `Cc1cc(C(=O)N2CCN(c3nc4nc(Cl)ccc4o3)CC2)ccc1-c1nnn(CC(C)(C)C)n1` [Example 302, [4-(5-chlorooxazolo[4,5-b]pyridin-2-yl)piperazin-1-yl]-[4-[2-(2,2-dimethylpropyl)tetrazol-5-yl]-3-methyl-phenyl]methanone], the IC50 falls from 3 nM to 2 nM (1.5-fold).

`Cc1ccc2oc(N3CCN(C(=O)c4ccc(-c5nnn(CC(C)(C)C)n5)c(F)c4)CC3)nc2n1` [Example 303, [4-[2-(2,2-dimethylpropyl)tetrazol-5-yl]-3-fluoro-phenyl]-[4-(5-methyloxazolo[4,5-b]pyridin-2-yl)piperazin-1-yl]methanone] gave an IC50 of 7 nM.
